Read-outs that look alike come from different tables or passages of the source.
Legend:
[1] = target: human glucagon receptor (GCGR) (Homo sapiens (Human), UniProt P47871); experiment: Inhibition of 125I-glucagon binding to membranes from HEK293 cells expressing the human glucagon receptor
Procedure: Inhibition ^125I-Glucagon Binding to Membranes from HEK293 Cells Expressing the Human Glucagon Receptor (GCGR)
Full-length human GCGR (Accession Number: NM000160) subcloned into pcDNA3.1 was stably transfected into HEK293 cells (hGluc-1 HEK) and maintained under G418 selection (500 μg/mL). Cell cultures were maintained in DMEM/F12 media supplemented with 10% FBS and 1% GlutaMax. Membranes were prepared from these cells as follows: cells were harvested from T225 flasks and re-suspended in hypotonic lysis buffer, 50 mM HEPES pH 7.4 supplemented with Complete Protease inhibitors (Boehringer Mannheim, Indianapolis, Ind.). Cells were dounced 20 times on ice and spun at 700×g to remove nuclei and unlysed cells. The resulting pellet was re-suspended in hypotonic lysis buffer and the above step was repeated. Supernatants from the low speed centrifugation were combined and subsequently spun at 100K×g for 1 hr at 4° C. and the resulting pellet was re-suspended in buffer containing 50 mM HEPES pH 7.4 and 10% sucrose and the protein concentration was adjusted at 1 mg/mL as determined in the BCA assay. Membranes were aliquoted and stored at −80° C. The binding assay was performed by a filtration method in a 384 well format. Membranes at a final protein concentration of 6 μg/well were incubated with ^125I-glucagon at 0.3 nM and in the presence of compound for 2 hours at room temperature in a total reaction volume of 40 μL per well. Assay buffer consisted of 50 mM HEPES, pH 7.4, 5 mM MgCl2, 1 mM CaCl2 and 0.2% BSA. 30 μL of the reaction was then transferred to PEI treated filter plates and followed by filter aspiration. Plates were then washed 5× and allowed to dry at room temperature overnight. The next day the bottom of the plate was covered with seal tape and scintillant was added. Total counts retained by the filters were quantified with a Top Count instrument. IC50's were generated by using a non-linear regression macro driven in Excel and converted to K's.

human GCGR = human GCGR (Homo sapiens (Human), UniProt P47871); experiment: Cellular functional assay, cAMP readout (glucagon-stimulated cAMP in HEK293 cells expressing human GCGR); format: cell-based; conditions: hGluc-1 HEK cells, LANCE TR-FRET, IC50 converted to Ki, average if tested more than once
Sequence of human GCGR (P47871 26-477): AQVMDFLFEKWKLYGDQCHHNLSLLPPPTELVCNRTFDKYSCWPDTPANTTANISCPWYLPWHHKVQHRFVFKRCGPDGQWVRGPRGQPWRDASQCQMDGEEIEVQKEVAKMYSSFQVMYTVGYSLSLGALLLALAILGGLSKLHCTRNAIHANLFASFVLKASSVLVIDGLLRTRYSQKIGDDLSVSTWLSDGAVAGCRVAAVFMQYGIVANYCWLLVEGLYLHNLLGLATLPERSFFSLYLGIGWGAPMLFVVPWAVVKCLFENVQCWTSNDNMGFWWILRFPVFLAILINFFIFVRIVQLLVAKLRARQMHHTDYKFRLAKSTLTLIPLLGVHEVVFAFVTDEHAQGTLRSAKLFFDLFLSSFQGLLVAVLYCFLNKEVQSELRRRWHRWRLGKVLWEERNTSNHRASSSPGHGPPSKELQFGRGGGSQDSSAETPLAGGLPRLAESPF
In short: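 HEK293 cells stably transfected with full-length human GCGR were exposed to compound for 30 min before a 5-min challenge with […] (final) glucagon. Readout was TR-FRET (LANCE) cAMP versus standard curve; IC50s fitted by non-linear regression and converted to Ki values.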

[2] = membranes of hGluc-1 HEK cells, 125I-glucagon 0.3 nM, 2 hours room temperature, IC50 converted to Ki, average if tested more than once

Sequence of human glucagon receptor (GCGR) (P47871 26-477): as above

Structure (SMILES)	Ki [1, 2] [nM]	Ki (human GCGR) [nM]	Ki [1] [nM]
COc1cc(NCc2ccc(Cl)cc2-c2ccc(C(=O)NCCC(=O)O)nc2)ccc1-c1ccc(C(F)(F)F)cc1 [Compound 54, 3-(5-(5-chloro-2-(((2-methoxy-4′-(trifluoromethyl)-[1,1′-biphenyl]-4-yl)amino)methyl)phenyl)picolinamido)propanoic acid]	48.5	220	
O=C(O)CCNC(=O)c1ccc(-c2cc(Cl)ccc2CNc2ccc(-c3ccc(Cl)c(Cl)c3)c(C(F)(F)F)c2)cn1 [Compound 55, 3-(5-(5-chloro-2-(((3′,4′-dichloro-2-(trifluoromethyl)-[1,1′-biphenyl]-4-yl)amino)methyl)phenyl)picolinamido)propanoic acid]	156	650	
O=C(O)CCNC(=O)c1ccc(-c2cc(F)ccc2CNc2ccc(-c3ccc(C(F)(F)F)cc3)c(F)c2)cn1 [Compound 56, 3-(5-(5-fluoro-2-(((2-fluoro-4′-(trifluoromethyl)-[1,1′-biphenyl]-4-yl)amino)methyl)phenyl)picolinamido)propanoic acid]	98.8	309	
O=C(O)CCNC(=O)c1ccc(-c2cc(F)ccc2CNc2ccc(-c3ccc(Cl)cc3Cl)c(F)c2)cn1 [Compound 57, 3-(5-(2-(((2′,4′-dichloro-2-fluoro-[1,1′-biphenyl]-4-yl)amino)methyl)-5-fluorophenyl)picolinamido)propanoic acid]	74.2	205	
O=C(O)CCNC(=O)c1ccc(-c2cc(Cl)ccc2CNc2ccc(-c3ccc(Cl)c(Cl)c3)cc2)cn1 [Compound 58, 3-(5-(5-chloro-2-(((3′,4′-dichloro-[1,1′-biphenyl]-4-yl)amino)methyl)phenyl)picolinamido)propanoic acid]	47.3	58.4	
CC(C)(C)c1ccc(-c2ccc(NCc3ccc(Cl)cc3-c3ccc(C(=O)NCCC(=O)O)nc3)cc2)cc1 [Compound 59, 3-(5-(2-(((4′-(tert-butyl)-[1,1′-biphenyl]-4-yl)amino)methyl)-5-chlorophenyl)picolinamido)propanoic acid]	72.4	320	
COc1ccc(-c2ccc(C(=O)NCCC(=O)O)nc2)c(CNc2ccc(-c3ccc(Cl)cc3Cl)cc2)c1 [Compound 60, 3-(5-(2-(((2′,4′-dichloro-[1,1′-biphenyl]-4-yl)amino)methyl)-4-methoxyphenyl)picolinamido)propanoic acid]	194	1370	
COc1ccc(-c2ccc(C(=O)NCCC(=O)O)nc2)c(CNc2ccc(-c3ccc(Cl)c(Cl)c3)cc2)c1 [Compound 61, 3-(5-(2-(((3′,4′-dichloro-[1,1′-biphenyl]-4-yl)amino)methyl)-4-methoxyphenyl)picolinamido)propanoic acid]		479	97.7
O=C(O)CCNC(=O)c1ccc(-c2cc(C(F)(F)F)ccc2CNc2ccc(-c3cccc(F)c3)cc2)cn1 [Compound 62, 3-(5-(2-(((3′-fluoro-[1,1′-biphenyl]-4-yl)amino)methyl)-5-(trifluoromethyl)phenyl)picolinamido)propanoic acid]	37.4	175	
O=C(O)CCNC(=O)c1ccc(-c2cc(Cl)ccc2CNc2ccc(-c3ccc(F)cc3F)c(Cl)c2)cn1 [Compound 63, 3-(5-(5-chloro-2-(((2-chloro-2′,4′-difluoro-[1,1′-biphenyl]-4-yl)amino)methyl)phenyl)picolinamido)propanoic acid]	22.6	188	
Cc1cccc(-c2ccc(C(=O)NCCC(=O)O)nc2)c1CNc1ccc(-c2ccc(Cl)cc2)cc1 [Compound 65, 3-(5-(2-(((4′-chloro-[1,1′-biphenyl]-4-yl)amino)methyl)-3-methylphenyl)picolinamido)propanoic acid]	139	390	
N#Cc1cccc(CNc2ccc(-c3ccc(Cl)cc3)cc2)c1-c1ccc(C(=O)NCCC(=O)O)nc1 [Compound 66, 3-(5-(2-(((4′-chloro-[1,1′-biphenyl]-4-yl)amino)methyl)-6-cyanophenyl)picolinamido)propanoic acid]	68.7	1850	
O=C(O)CCNC(=O)c1ccc(-c2cc(C(F)(F)F)cc(Cl)c2CNc2ccc(-c3ccc(Cl)cc3)cc2)cn1 [Compound 67, 3-(5-(3-chloro-2-(((4′-chloro-[1,1′-biphenyl]-4-yl)amino)methyl)-5-(trifluoromethyl)phenyl)picolinamido)propanoic acid]	18.8	12.2	
Cc1ccc(CNc2ccc(-c3ccc(Cl)cc3)cc2)c(-c2ccc(C(=O)NCCC(=O)O)nc2)c1 [Compound 68, 3-(5-(2-(((4′-chloro-[1,1′-biphenyl]-4-yl)amino)methyl)-5-methylphenyl)picolinamido)propanoic acid]	40	151	
Cc1cccc(CNc2ccc(-c3ccc(Cl)cc3)cc2)c1-c1ccc(C(=O)NCCC(=O)O)nc1 [Compound 69, 3-(5-(2-(((4′-chloro-[1,1′-biphenyl]-4-yl)amino)methyl)-6-methylphenyl)picolinamido)propanoic acid]	85.2	500	
CS(=O)(=O)c1ccc(CNc2ccc(-c3ccc(Cl)cc3)cc2)c(-c2ccc(C(=O)NCCC(=O)O)nc2)c1 [Compound 70, 3-(5-(2-(((4′-chloro-[1,1′-biphenyl]-4-yl)amino)methyl)-5-(methylsulfonyl)phenyl)picolinamido)propanoic acid]	52.2	> 10400	
O=C(O)CCNC(=O)c1ccc(-c2cc(C(F)(F)F)cc(C(F)(F)F)c2CNc2ccc(-c3ccc(Cl)cc3)cc2)cn1 [Compound 71, 3-(5-(2-(((4′-chloro-[1,1′-biphenyl]-4-yl)amino)methyl)-3,5-bis(trifluoromethyl)phenyl)picolinamido)propanoic acid]	31.3	17.3	
Cc1cc(Cl)ccc1-c1ccc(NCc2c(Cl)cc(C(F)(F)F)cc2-c2ccc(C(=O)NCCC(=O)O)nc2)cc1 [Compound 73, 3-(5-(3-chloro-2-(((4′-chloro-2′-methyl-[1,1′-biphenyl]-4-yl)amino)methyl)-5-(trifluoromethyl)phenyl)picolinamido)propanoic acid]	19.5	3.7	
O=C(O)CCNC(=O)c1ccc(-c2cc(C(F)(F)F)cc(Cl)c2CNc2ccc(-c3ccc(Cl)cc3)c(Cl)c2)cn1 [Compound 74, 3-(5-(3-chloro-2-(((2,4′-dichloro-[1,1′-biphenyl]-4-yl)amino)methyl)-5-(trifluoromethyl)phenyl)picolinamido)propanoic acid]	14.9	7.1	
Cc1cc(NCc2c(Cl)cc(C(F)(F)F)cc2-c2ccc(C(=O)NCCC(=O)O)nc2)ccc1-c1ccc(Cl)cc1 [Compound 75, 3-(5-(3-chloro-2-(((4′-chloro-2-methyl-[1,1′-biphenyl]-4-yl)amino)methyl)-5-(trifluoromethyl)phenyl)picolinamido)propanoic acid]	27.8	6.7	
Cc1cc(Cl)ccc1-c1ccc(NCc2cc(Cl)c(C(F)(F)F)cc2-c2ccc(C(=O)NCCC(=O)O)nc2)cc1 [Compound 77, 3-(5-(4-chloro-2-(((4′-chloro-2′-methyl-[1,1′-biphenyl]-4-yl)amino)methyl)-5-(trifluoromethyl)phenyl)picolinamido)propanoic acid]	24.2	22.4	
O=C(O)CCNC(=O)c1ccc(-c2cc(C(F)(F)F)c(Cl)cc2CNc2ccc(-c3ccc(Cl)cc3)c(Cl)c2)cn1 [Compound 78, 3-(5-(4-chloro-2-(((2,4′-dichloro-[1,1′-biphenyl]-4-yl)amino)methyl)-5-(trifluoromethyl)phenyl)picolinamido)propanoic acid]	24	25	
Cc1cc(NCc2cc(Cl)c(C(F)(F)F)cc2-c2ccc(C(=O)NCCC(=O)O)nc2)ccc1-c1ccc(Cl)cc1 [Compound 79, 3-(5-(4-chloro-2-(((4′-chloro-2-methyl-[1,1′-biphenyl]-4-yl)amino)methyl)-5-(trifluoromethyl)phenyl)picolinamido)propanoic acid]	24	31.6	
O=C(O)CCNC(=O)c1ccc(-c2cc(C(F)(F)F)c(Cl)cc2CNc2ccc(-c3ccc(Cl)cc3)cc2)cn1 [Compound 80, 3-(5-(4-chloro-2-(((4′-chloro-[1,1′-biphenyl]-4-yl)amino)methyl)-5-(trifluoromethyl)phenyl)picolinamido)propanoic acid]	28.6	47.4	

Reference: patent US8748624B2, “Picolinamido-propanoic acid derivatives useful as glucagon receptor antagonists” (Janssen Pharmaceutica NV, priority 2011, dated 2014)
